*1 amine or outer side, *2 acyl side, *3 side chain or, on linkers, in order; H or OH if unused. Where a SMILES comes first, the peptide text is derived from it. [ ]: non-standard residue; d: D form. The star is where a group is joined. Benzoyl(4-(4-EtNHCO-PhO)) = CCNC(=O)c1ccc(Oc2ccc(C(=O)*)cc2)cc1; Benzoyl(4-O-C6H4-4-CONHMe) = CNC(=O)c1ccc(Oc2ccc(C(=O)*)cc2)cc1; Benzenesulfonyl(4-OPh) = O=S(=O)(c1ccc(Oc2ccccc2)cc1)*; X1 = O=C(Nc1ccc(S(=O)(=O)*)cc1)c1ccc(OC(F)(F)F)cc1; X11 = O=C(O)CCCCNC(=O)c1ccc(Oc2ccc(C(=O)*)cc2)cc1; X12 = O=S(=O)(c1ccc(-c2cn(-c3ccccc3)nn2)cc1)*; X15 = CC(=O)c1ccc(-c2ccc(S(=O)(=O)*)cc2)cc1; Benzoyl(4-OPh) = O=C(c1ccc(Oc2ccccc2)cc1)*; X9 = O=C(NCCCO)c1ccc(Oc2ccc(C(=O)*)cc2)cc1; d(γGlu) = O=C(O)[C@@H](CCC(=O)[*:2])N[*:1]; d(βAsp) = O=C(O)[C@@H](CC(=O)[*:2])N[*:1]; X7 = O=S(=O)(c1ccc(-c2ccc(OCCO)cc2)cc1)*; X13 = Cc1ccc(C#Cc2ccc(S(=O)(=O)*)s2)cc1; NMeF = CN[C@@H](Cc1ccccc1)C(=O)O; NMeI = CC[C@H](C)[C@H](NC)C(=O)O; NMeE = CN[C@@H](CCC(=O)O)C(=O)O; NMeN = CN[C@@H](CC(N)=O)C(=O)O; NMeL = CN[C@@H](CC(C)C)C(=O)O; NMeM = CN[C@@H](CCSC)C(=O)O; β3hP = O=C(O)C[C@@H]1CCCN1; Dab = NCC[C@H](N)C(=O)O; Ahx = NCCCCCC(=O)O; Ava = NCCCCC(=O)O; GABA = NCCCC(=O)O

The target in one experiment is T1, MMP2 (Homo sapiens, UniProt P08253).
T1 sequence (P08253 110-660): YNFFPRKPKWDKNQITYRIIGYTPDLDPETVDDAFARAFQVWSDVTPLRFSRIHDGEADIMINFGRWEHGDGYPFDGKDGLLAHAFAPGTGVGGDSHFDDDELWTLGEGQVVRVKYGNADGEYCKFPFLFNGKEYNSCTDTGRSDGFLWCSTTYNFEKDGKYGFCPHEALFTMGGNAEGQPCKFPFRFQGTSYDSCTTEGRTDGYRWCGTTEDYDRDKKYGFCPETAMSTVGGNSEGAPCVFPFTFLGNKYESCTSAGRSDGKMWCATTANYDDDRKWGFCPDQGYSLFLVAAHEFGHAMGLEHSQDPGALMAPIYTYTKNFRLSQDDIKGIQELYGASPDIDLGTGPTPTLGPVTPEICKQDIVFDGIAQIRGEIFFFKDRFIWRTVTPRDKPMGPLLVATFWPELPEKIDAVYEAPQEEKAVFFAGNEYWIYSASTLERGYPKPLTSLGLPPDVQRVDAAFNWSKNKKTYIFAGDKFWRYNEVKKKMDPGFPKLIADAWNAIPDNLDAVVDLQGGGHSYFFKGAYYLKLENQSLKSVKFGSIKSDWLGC
The experiment in a line: Inhibitory effects on human MMP2 (Method 1), enzyme assay with MOCAc-Pro-Leu-Gly-Leu-A2pr(Dnp)-Ala-Arg-NH2 substrate, 96-well. It is filed as biochemical.
Conditions: not given
The protocol:
In a reaction solution [50 mmol/L Tris-HCl (pH 7.5), 150 mmol/L NaCl, 10 mmol/L CaCl2, 0.05% Brij L23], 100 μg/mL human recombinant MMP2 enzyme and 1 mmol/L 4-Aminophenylmercuric acetate were mixed together, and reacted at 37° C. for 60 minutes. The human MMP2 activated through the reaction was poured into a 96-well microplate to reach a final concentration of 0.7 or 7 ng/mL.
For `CC[C@H](C)[C@@H](C(=O)N1CCC[C@H]1CC(N)=O)N(C)C(=O)[C@H](CC(C)C)NC(=O)[C@H](CCN)NC(=O)[C@H](CC(=O)O)NC(=O)[C@H](CC(N)=O)NC(=O)CCCNC(=O)c1ccc(Oc2ccccc2)cc1` [Compound 106], the IC50 stood at 0.16 nM.

The experiment is the same for the next values; noted with them: Test Example No. 1-1 (Method 1, 96-well microplate); read-out: Human MMP2, IC50.
As to `CC(C)C[C@H](NC(=O)[C@H](CCN)NC(=O)[C@H](CC(=O)O)NC(=O)[C@H](CC(N)=O)NC(=O)CCCCNC(=O)c1ccc(Oc2ccc(C(=O)NCCCO)cc2)cc1)C(=O)N(C)[C@@H](CCC(=O)O)C(=O)N1CCC[C@H]1CC(N)=O` [Compound 182] ({X9-Ava}-ND[Dab]L[NMeE][β3hP]-NH2; N-terminus assumed), the IC50 was 0.49 nM.

Turning to `CC[C@H](C)[C@@H](C(=O)N1CCC[C@H]1CC(N)=O)N(C)C(=O)[C@H](CC(C)C)NC(=O)[C@H](C)NC(=O)C[C@@H](NS(=O)(=O)c1ccc(-c2ccc(C(C)=O)cc2)cc1)C(=O)O` [Compound 634, N^2-(4′-acetyl[1,1′-biphenyl]-4-sulfonyl)-N-[(2S)-1-({(2S)-1-[{(2S,3S)-1-[(2S)-2-(2-amino-2-oxoethyl)pyrrolidin-1-yl]-3-methyl-1-oxopentan-2-yl}(methyl)amino]-4-methyl-1-oxopentan-2-yl}amino)-1-oxopropan-2-yl]-D-asparagine] ({X15-d(βAsp)}-AL[NMeI][β3hP]-NH2), the IC50 was 0.13 nM.

On to `CC(C)C[C@H](NC(=O)[C@H](CCN)NC(=O)[C@H](CC(=O)O)NC(=O)[C@H](CC(N)=O)N(C)C(=O)CCCNC(=O)c1ccc(Oc2ccccc2)cc1)C(=O)N(C)[C@@H](CCC(=O)O)C(=O)N1CCC[C@H]1CC(N)=O` [Compound 112] ({Benzoyl(4-OPh)-GABA}-[NMeN]D[Dab]L[NMeE][β3hP]-NH2; N-terminus assumed), for which the IC50 was found to be 0.55 nM.

In the case of `CC[C@H](C)[C@@H](C(=O)N1CCC[C@H]1C(N)=O)N(C)C(=O)[C@H](CC(C)C)NC(=O)[C@H](C)NC(=O)[C@H](CC(=O)O)NC(=O)[C@H](CC(C)C)N(C)C(=O)CCCNC(=O)c1ccc(Oc2ccccc2)cc1` [Compound 120] ({Benzoyl(4-OPh)-GABA}-[NMeL]DAL[NMeI]P-NH2; N-terminus assumed), the IC50 was 0.21 nM.

As to `CC[C@H](C)[C@@H](C(=O)N1CCC[C@H]1CC(N)=O)N(C)C(=O)[C@H](CC(C)C)NC(=O)[C@H](CCN)NC(=O)[C@H](CC(=O)O)NC(=O)[C@H](NC(=O)CCCCNS(=O)(=O)c1ccc(Oc2ccccc2)cc1)[C@H](C)O` [Compound 85] ({Benzenesulfonyl(4-OPh)-Ava}-[dT]D[Dab]L[NMeI][β3hP]-NH2; N-terminus assumed), the IC50 stood at 0.49 nM.

Turning to `CC(C)C[C@H](NC(=O)[C@H](CCN)NC(=O)[C@H](CC(=O)O)NC(=O)[C@H](CC(N)=O)NC(=O)CCCNC(=O)c1ccc(Oc2ccccc2)cc1)C(=O)N(C)[C@@H](CCC(=O)O)C(=O)N1CCC[C@H]1C(N)=O` [Compound 109] ({Benzoyl(4-OPh)-GABA}-ND[Dab]L[NMeE]P-NH2; N-terminus assumed), the IC50 was determined as 0.7 nM.

With `CC[C@H](C)[C@@H](C(=O)N1CCC[C@H]1C(N)=O)N(C)C(=O)[C@H](CC(C)C)NC(=O)[C@H](C)NC(=O)[C@H](CC(=O)O)NC(=O)[C@H](CCC(=O)O)N(C)C(=O)CCCNC(=O)c1ccc(Oc2ccccc2)cc1` [Compound 126] ({Benzoyl(4-OPh)-GABA}-[NMeE]DAL[NMeI]P-NH2; N-terminus assumed), the IC50 is 0.29 nM.

As for `CSCC[C@@H](C(=O)N1CCC[C@H]1C(N)=O)N(C)C(=O)[C@H](CC(C)C)NC(=O)[C@H](C)NC(=O)[C@H](CC(=O)O)NC(=O)[C@H](CC(N)=O)NC(=O)CCCNS(=O)(=O)c1ccc(C#Cc2ccc(C)cc2)s1` [Compound 588] ({X13-GABA}-NDAL[NMeM]P-NH2; N-terminus assumed), the IC50 amounted to 0.12 nM.

On to `CC(C)C[C@H](NC(=O)[C@H](CCN)NC(=O)CC[C@@H](NS(=O)(=O)c1ccc(NC(=O)c2ccc(OC(F)(F)F)cc2)cc1)C(=O)O)C(=O)N(C)[C@@H](CCC(=O)O)C(=O)N1CCC[C@H]1CC(N)=O` [Compound 704] ({X1-d(γGlu)}-[Dab]L[NMeE][β3hP]-NH2; N-terminus assumed), for which the IC50 stood at 0.42 nM.

In the case of `CNC(=O)c1ccc(Oc2ccc(C(=O)NCCCCC(=O)N[C@@H](CCCCN)C(=O)N[C@@H](CC(=O)O)C(=O)N[C@@H](CCN)C(=O)N[C@@H](CC(C)C)C(=O)N(C)[C@@H](CCC(=O)O)C(=O)N3CCC[C@H]3CC(N)=O)cc2)cc1` [Compound 184] ({Benzoyl(4-O-C6H4-4-CONHMe)-Ava}-KD[Dab]L[NMeE][β3hP]-NH2; N-terminus assumed), the half-inhibitory concentration (IC50) came out at 0.61 nM.

For `CC[C@H](C)[C@@H](C(=O)N1CCC[C@H]1C(N)=O)N(C)C(=O)[C@H](CC(C)C)NC(=O)[C@H](C)NC(=O)[C@H](CC(=O)O)NC(=O)[C@H](CCSC)N(C)C(=O)CCCNC(=O)c1ccc(Oc2ccccc2)cc1` [Compound 122] ({Benzoyl(4-OPh)-GABA}-[NMeM]DAL[NMeI]P-NH2; N-terminus assumed), the IC50 turned out to be 0.16 nM.

Turning to `CC[C@H](C)[C@@H](C(=O)N1CCC[C@H]1C(N)=O)N(C)C(=O)[C@H](CC(C)C)NC(=O)[C@H](C)NC(=O)[C@H](CC(=O)O)NC(=O)[C@@H](CC(N)=O)NC(=O)CCCNC(=O)c1ccc(Oc2ccccc2)cc1` [Compound 114] ({Benzoyl(4-OPh)-GABA}-[dN]DAL[NMeI]P-NH2; N-terminus assumed), the IC50 worked out at 0.072 nM.

Turning to `CC[C@H](C)[C@@H](C(=O)N1CCC[C@H]1CC(N)=O)N(C)C(=O)[C@H](CC(C)C)NC(=O)[C@H](CCN)NC(=O)[C@H](CC(=O)O)NC(=O)[C@H](CCC(=O)O)NC(=O)CCCCNC(=O)c1ccc(Oc2ccc(C(=O)NCCCCC(=O)O)cc2)cc1` [Compound 200] ({X11-Ava}-ED[Dab]L[NMeI][β3hP]-NH2; N-terminus assumed), the IC50 was 7.4 nM.

Consider `CC[C@H](C)[C@@H](C(=O)N1CCC[C@H]1C(N)=O)N(C)C(=O)[C@H](CC(C)C)NC(=O)[C@H](C)NC(=O)[C@H](CC(=O)O)NC(=O)[C@H](Cc1ccccc1)N(C)C(=O)CCCNC(=O)c1ccc(Oc2ccccc2)cc1` [Compound 124] ({Benzoyl(4-OPh)-GABA}-[NMeF]DAL[NMeI]P-NH2; N-terminus assumed), for which the IC50 worked out at 0.31 nM.

Regarding `CC[C@H](C)[C@@H](C(=O)N1CCC[C@H]1C(N)=O)N(C)C(=O)[C@H](CC(C)C)NC(=O)[C@H](C)NC(=O)[C@H](CC(=O)O)NC(=O)[C@H](CC(N)=O)N(C)C(=O)CCCNC(=O)c1ccc(Oc2ccccc2)cc1` [Compound 94] ({Benzoyl(4-OPh)-GABA}-[NMeN]DAL[NMeI]P-NH2; N-terminus assumed), the IC50 was 0.088 nM.

Take `CC[C@H](C)[C@@H](C(=O)N1CCC[C@H]1CC(N)=O)N(C)C(=O)[C@H](CC(C)C)NC(=O)[C@H](CCN)NC(=O)[C@H](CC(=O)O)NC(=O)[C@H](CCCNC(=N)N)NC(=O)CCCCCNC(=O)c1ccc(Oc2ccc(C(=O)NC)cc2)cc1` [Compound 191] ({Benzoyl(4-O-C6H4-4-CONHMe)-Ahx}-RD[Dab]L[NMeI][β3hP]-NH2; N-terminus assumed): the IC50 worked out at 2.7 nM.

Take `CC(C)C[C@H](NC(=O)[C@H](CCN)NC(=O)C[C@@H](NS(=O)(=O)c1ccc(-c2ccc(OCCO)cc2)cc1)C(=O)O)C(=O)N(C)[C@@H](CCC(=O)O)C(=O)N1CCC[C@H]1CC(N)=O` [Compound 640] ({X7-d(βAsp)}-[Dab]L[NMeE][β3hP]-NH2; N-terminus assumed): the IC50 was 0.38 nM.

As for `CNC(=O)c1ccc(Oc2ccc(C(=O)NCCCCCC(=O)N[C@@H](CCCNC(=N)N)C(=O)N[C@@H](CC(=O)O)C(=O)N[C@@H](CCN)C(=O)N[C@@H](CC(C)C)C(=O)N(C)[C@@H](CCC(=O)O)C(=O)N3CCC[C@H]3CC(N)=O)cc2)cc1` [Compound 190] ({Benzoyl(4-O-C6H4-4-CONHMe)-Ahx}-RD[Dab]L[NMeE][β3hP]-NH2; N-terminus assumed), the IC50 worked out at 1.8 nM.

As for `CCNC(=O)c1ccc(Oc2ccc(C(=O)NCCCCC(=O)N[C@@H](CCCCN)C(=O)N[C@@H](CC(=O)O)C(=O)N[C@@H](CCN)C(=O)N[C@@H](CC(C)C)C(=O)N(C)[C@@H](CCC(=O)O)C(=O)N3CCC[C@H]3CC(N)=O)cc2)cc1` [Compound 192] ({Benzoyl(4-(4-EtNHCO-PhO))-Ava}-KD[Dab]L[NMeE][β3hP]-NH2; N-terminus assumed), the IC50 was determined as 1.9 nM.

Turning to `CC[C@H](C)[C@@H](C(=O)N1CCC[C@H]1CC(N)=O)N(C)C(=O)[C@H](CC(C)C)NC(=O)[C@H](CCN)NC(=O)CC[C@@H](NS(=O)(=O)c1ccc(-c2cn(-c3ccccc3)nn2)cc1)C(=O)O` [Compound 608, N-[(2S)-4-amino-1-({(2S)-1-[{(2S,3S)-1-[(2S)-2-(2-amino-2-oxoethyl)pyrrolidin-1-yl]-3-methyl-1-oxopentan-2-yl}(methyl)amino]-4-methyl-1-oxopentan-2-yl}amino)-1-oxobutan-2-yl]-N^2-[4-(1-phenyl-1H-1,2,3-triazol-4-yl)benzene-1-sulfonyl]-D-glutamine] ({X12-d(γGlu)}-[Dab]L[NMeI][β3hP]-NH2), the half-maximal inhibitory concentration (IC50) stood at 0.34 nM.

For the origin of these results see patent US20240199692A1 (priority 2019, published 2024).
